Values of other authors as cited in patent publication US20120148649A1, “COMPOSITION FOR RESTORATION OF AGE RELATED TISSUE IN THE FACE OR SELECTED AREAS OF THE BODY” (priority 2004, published 2012).

Columns and labels:
tumor growth = settings: deuterium concentration from 0.1 to 110 ppm; animal model studies
cancer patients = settings: human clinical trials, hundreds of cancer patients

## deuterium depleted water
Tumor growth
  effect on tumor growth: inhibits tumor growth
Cancer patients
  effect on life span of cancer patients: extended life span
